Earlier results, collected in US10794912B2 (priority 2017, dated 2020).

Settings: in vivo

Question: Which time to death does the source give for `C[C@@H]1Cc2c(Cl)cc(C(=O)N[C@@H](Cc3ccccc3)C(=O)O)c(O)c2C(=O)O1` [ochratoxin A] here?
Answer: 5 to 6 days
